From patent publication US12059422B2 (MEI Pharma, Inc., priority 2011, dated 2024) come the findings set out here.

Type in all cases: biochemical
One assay concerns the target T1, PI3K delta (Homo sapiens, UniProt O00329).
T1 construct: purchased Millipore, Billerica, MA, USA
Kind of assay: Luciferase-based luminescence assay (KinaseGlo), PI3K delta enzymatic activity. To be noted: for IC50: inhibition of enzymatic activity, KinaseGlo, 25 μM ATP, read-out: IC50 p110δ; for α/δ ratio: ratio of enzymatic IC50 against PI3Kα over IC50 against PI3Kδ; for β/δ ratio / γ/δ ratio: ratio of enzymatic IC50 values, Table 1. The gist of the method:
(§1)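 KinaseGlo luminescence measured ATP remaining after PIP2 (50 μM) phosphorylation with 25 μM ATP in HEPES pH 7.5 buffer with CHAPS and DTT. Final enzyme was 1.65 nM alpha (1 h reaction) or 6.86 nM delta (2 h reaction). IC50 was curve-fitted from 10 concentrations.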

Another assay concerns the target T2, PI3K gamma (Homo sapiens, UniProt P48736).
T2 construct: purchased Invitrogen Corp., Carlsbad, CA, USA
Nature of the assay: Luciferase-based luminescence assay (ADP Glo), PI3K gamma enzymatic activity. To be noted: inhibition of enzymatic activity, 25 μM ATP, read-out: IC50 p110γ. The gist of the method: (§2)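 Final enzyme 4.8 nM PI3K beta or 7.6 nM PI3K gamma, with 50 μM PIP2 and 25 μM ATP, 1 h in HEPES pH 7.5 buffer with MgCl2, EGTA, NaCl, CHAPS and DTT. ADP formed measured by ADP-Glo luminescence; IC50 from 10-point curve fits.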
On the technique in general: ADP-Glo turns the ADP formed in a reaction into a luminescent signal.

The target of the next assay is T3, PI3K alpha (Homo sapiens, UniProt P42336).
T3 construct: purchased Invitrogen Corp., Carlsbad, CA, USA
Nature of the assay: Luciferase-based luminescence assay (KinaseGlo), PI3K alpha enzymatic activity. To be noted: inhibition of enzymatic activity, 25 μM ATP, read-out: IC50 p110α. A digest of the protocol:
as §1

A further assay has as its target T4, PI3K beta (Homo sapiens, UniProt P42338).
T4 construct: purchased Millipore, Billerica, MA, USA
Kind of assay: Luciferase-based luminescence assay (ADP Glo), PI3K beta enzymatic activity. To be noted: for IC50: inhibition of enzymatic activity, ADP Glo, 25 μM ATP, read-out: IC50 p110β; for α/β ratio: ratio of enzymatic IC50 values, Table 1. A digest of the protocol: as §2

T2 sequence (P48736 whole entry, species assumed): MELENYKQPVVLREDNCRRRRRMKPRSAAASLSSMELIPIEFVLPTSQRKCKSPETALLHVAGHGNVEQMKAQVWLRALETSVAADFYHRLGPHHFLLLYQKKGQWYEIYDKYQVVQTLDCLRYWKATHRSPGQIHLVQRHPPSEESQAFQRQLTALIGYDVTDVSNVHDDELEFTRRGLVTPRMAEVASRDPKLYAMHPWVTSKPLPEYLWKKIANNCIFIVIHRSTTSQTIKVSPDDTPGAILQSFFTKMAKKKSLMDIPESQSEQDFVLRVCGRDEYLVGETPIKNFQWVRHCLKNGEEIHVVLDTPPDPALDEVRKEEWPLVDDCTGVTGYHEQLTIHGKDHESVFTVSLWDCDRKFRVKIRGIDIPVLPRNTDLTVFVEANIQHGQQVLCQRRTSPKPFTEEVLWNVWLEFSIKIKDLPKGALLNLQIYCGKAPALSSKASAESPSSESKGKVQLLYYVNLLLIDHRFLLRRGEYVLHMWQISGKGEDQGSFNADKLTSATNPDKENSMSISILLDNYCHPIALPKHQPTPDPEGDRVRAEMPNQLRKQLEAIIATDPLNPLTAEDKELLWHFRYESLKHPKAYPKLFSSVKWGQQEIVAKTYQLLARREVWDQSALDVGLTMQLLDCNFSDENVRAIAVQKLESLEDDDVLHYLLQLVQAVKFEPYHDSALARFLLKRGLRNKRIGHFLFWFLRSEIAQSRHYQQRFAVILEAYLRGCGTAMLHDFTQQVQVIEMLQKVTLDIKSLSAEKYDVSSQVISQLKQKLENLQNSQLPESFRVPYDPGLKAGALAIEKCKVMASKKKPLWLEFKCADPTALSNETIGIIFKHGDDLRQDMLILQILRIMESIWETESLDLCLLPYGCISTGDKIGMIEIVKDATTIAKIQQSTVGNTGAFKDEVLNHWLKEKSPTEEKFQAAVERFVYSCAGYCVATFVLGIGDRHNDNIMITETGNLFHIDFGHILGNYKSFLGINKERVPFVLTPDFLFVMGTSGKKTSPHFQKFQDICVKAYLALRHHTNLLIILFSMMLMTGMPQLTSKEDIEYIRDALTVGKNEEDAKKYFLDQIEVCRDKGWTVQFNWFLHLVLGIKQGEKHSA
T4 sequence (P42338 whole entry, species assumed): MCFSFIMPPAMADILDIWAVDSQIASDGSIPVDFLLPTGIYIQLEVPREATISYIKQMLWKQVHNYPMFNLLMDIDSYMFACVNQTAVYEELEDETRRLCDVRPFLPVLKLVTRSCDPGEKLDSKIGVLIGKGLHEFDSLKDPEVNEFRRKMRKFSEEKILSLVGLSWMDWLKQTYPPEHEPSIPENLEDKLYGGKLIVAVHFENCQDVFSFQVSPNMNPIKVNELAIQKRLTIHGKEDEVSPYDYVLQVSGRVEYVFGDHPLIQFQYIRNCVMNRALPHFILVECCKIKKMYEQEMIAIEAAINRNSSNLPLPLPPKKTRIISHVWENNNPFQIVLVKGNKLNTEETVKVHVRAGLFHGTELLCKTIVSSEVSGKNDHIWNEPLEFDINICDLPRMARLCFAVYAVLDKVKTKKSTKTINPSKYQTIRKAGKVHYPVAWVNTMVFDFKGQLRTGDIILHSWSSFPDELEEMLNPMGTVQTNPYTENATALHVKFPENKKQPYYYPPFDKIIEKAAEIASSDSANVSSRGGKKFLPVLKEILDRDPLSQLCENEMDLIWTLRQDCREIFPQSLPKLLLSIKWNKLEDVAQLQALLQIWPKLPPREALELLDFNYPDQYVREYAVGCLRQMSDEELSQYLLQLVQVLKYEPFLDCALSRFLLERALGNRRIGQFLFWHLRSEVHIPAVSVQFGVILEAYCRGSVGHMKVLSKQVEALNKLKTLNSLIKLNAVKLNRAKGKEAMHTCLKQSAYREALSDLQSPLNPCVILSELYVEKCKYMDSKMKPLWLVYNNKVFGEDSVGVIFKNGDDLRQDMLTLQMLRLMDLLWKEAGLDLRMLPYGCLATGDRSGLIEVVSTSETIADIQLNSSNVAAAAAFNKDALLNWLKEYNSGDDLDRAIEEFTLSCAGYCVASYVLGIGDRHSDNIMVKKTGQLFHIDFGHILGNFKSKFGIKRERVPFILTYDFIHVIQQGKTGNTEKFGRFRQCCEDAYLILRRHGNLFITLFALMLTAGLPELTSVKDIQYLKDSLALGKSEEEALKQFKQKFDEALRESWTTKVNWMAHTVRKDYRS
T4 sequence (P27986 whole entry partner, species assumed): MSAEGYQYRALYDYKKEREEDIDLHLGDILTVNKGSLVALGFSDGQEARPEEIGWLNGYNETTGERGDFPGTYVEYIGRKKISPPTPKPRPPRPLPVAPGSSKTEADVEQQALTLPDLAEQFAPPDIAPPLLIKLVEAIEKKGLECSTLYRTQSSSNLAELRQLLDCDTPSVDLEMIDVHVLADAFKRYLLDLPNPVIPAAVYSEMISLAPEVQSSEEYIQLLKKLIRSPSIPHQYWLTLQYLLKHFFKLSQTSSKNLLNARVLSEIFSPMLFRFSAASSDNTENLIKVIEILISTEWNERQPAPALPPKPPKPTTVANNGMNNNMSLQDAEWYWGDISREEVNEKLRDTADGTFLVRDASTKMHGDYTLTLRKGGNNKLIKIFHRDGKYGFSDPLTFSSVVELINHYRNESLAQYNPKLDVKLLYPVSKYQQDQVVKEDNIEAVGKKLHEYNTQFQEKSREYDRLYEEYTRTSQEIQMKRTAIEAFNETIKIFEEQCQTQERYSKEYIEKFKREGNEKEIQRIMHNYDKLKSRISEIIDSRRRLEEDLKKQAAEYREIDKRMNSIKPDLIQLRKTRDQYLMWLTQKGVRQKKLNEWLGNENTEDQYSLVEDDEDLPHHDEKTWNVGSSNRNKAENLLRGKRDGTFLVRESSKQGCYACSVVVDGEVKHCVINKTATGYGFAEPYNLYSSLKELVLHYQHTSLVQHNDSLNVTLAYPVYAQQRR
T3 sequence (P42336 whole entry, species assumed): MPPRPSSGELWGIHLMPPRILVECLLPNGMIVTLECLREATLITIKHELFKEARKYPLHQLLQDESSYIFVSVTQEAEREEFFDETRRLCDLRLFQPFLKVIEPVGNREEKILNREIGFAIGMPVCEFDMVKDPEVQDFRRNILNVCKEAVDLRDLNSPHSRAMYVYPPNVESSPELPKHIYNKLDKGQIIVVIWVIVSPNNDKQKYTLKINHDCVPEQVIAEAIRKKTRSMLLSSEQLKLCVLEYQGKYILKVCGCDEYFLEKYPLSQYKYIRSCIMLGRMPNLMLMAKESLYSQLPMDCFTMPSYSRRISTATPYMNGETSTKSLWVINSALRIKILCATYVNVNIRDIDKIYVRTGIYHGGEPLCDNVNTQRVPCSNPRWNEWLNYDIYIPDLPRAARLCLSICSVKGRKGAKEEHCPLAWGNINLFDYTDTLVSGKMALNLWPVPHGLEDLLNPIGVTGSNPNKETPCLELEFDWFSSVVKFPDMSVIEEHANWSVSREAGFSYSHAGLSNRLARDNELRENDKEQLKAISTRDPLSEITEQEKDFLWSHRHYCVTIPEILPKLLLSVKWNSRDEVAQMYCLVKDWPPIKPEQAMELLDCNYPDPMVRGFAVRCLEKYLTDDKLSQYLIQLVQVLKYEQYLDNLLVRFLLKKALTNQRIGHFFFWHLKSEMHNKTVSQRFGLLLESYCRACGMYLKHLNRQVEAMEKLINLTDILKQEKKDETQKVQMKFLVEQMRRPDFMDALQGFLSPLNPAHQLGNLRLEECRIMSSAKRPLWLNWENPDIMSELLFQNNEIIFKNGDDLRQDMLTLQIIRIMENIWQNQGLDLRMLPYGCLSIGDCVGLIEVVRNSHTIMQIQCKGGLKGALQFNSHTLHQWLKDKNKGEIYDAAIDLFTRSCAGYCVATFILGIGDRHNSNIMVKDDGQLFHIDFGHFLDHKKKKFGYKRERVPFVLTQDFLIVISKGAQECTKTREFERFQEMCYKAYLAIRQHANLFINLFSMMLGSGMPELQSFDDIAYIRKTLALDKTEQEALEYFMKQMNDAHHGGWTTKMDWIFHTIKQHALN
T3 sequence (P27986 whole entry partner, species assumed): as the sequence (P27986 whole entry partner, species assumed) above
T1 sequence (O00329 whole entry, species assumed): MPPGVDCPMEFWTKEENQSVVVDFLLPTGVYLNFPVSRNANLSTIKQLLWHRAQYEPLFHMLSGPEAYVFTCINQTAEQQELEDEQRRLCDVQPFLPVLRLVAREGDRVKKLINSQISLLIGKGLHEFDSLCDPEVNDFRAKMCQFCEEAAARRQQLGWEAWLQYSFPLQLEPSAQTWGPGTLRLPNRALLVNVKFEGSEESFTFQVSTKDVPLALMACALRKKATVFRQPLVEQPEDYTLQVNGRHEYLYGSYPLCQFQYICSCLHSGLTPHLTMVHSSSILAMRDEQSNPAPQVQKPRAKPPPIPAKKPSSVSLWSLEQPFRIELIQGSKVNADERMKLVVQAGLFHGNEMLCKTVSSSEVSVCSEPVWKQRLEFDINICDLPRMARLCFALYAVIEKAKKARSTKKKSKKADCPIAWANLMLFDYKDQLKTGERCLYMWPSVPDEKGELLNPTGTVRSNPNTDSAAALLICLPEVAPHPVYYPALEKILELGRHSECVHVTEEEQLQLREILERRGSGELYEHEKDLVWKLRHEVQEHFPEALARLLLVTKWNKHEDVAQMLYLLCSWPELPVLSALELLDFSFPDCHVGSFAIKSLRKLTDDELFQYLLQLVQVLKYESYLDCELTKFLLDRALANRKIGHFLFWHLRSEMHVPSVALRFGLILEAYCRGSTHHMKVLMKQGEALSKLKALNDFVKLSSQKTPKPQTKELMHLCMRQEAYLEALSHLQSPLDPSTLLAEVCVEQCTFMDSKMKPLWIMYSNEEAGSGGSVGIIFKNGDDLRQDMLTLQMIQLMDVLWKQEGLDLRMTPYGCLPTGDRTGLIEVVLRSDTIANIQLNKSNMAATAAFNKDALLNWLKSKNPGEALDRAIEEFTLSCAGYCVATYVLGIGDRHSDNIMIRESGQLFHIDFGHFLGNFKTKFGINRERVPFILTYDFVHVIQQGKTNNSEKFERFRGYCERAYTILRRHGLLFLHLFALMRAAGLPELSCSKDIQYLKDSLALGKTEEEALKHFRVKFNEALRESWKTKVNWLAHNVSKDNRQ
T1 sequence (P27986 whole entry partner, species assumed): as the sequence (P27986 whole entry partner, species assumed) above

In the case of `CC(C)(Cc1ccccc1-c1ccncc1)Nc1nc(N2CCOCC2)nc(-n2c(C(F)F)nc3ccccc32)n1` [Compound A33, 4-(2-(difluoromethyl)-1H-benzo[d]imidazol-1-yl)-N-(2-methyl-1-(2-(pyridin-4-yl)phenyl)propan-2-yl)-6-morpholino-1,3,5-triazin-2-amine], on PI3K delta, the concentration for half-maximal inhibition (IC50) is ≤ 100 nM, the α/δ ratio result is recorded as “A’”, the β/δ ratio result is “D’” and the γ/δ ratio entry is listed as “A’”. The IC50 on PI3K gamma fell in the range of 200 to 500 nM. The IC50 at PI3K alpha was in the range of 200 to 500 nM. Also, at PI3K beta, the IC50 is ≤ 100 nM and the α/β ratio result is listed as “B’”.

For `CN1CCN(c2cc(-c3ccccc3CC(C)(C)Nc3nc(N4CCOCC4)nc(-n4c(C(F)F)nc5ccccc54)n3)ccn2)CC1` [Compound A64, 4-(2-(difluoromethyl)-1H-benzo[d]imidazol-1-yl)-N-(2-methyl-1-(2-(2-(4-methylpiperazin-1-yl)pyridin-4-yl)phenyl)propan-2-yl)-6-morpholino-1,3,5-triazin-2-amine], at PI3K delta, the IC50 is ≤ 100 nM, the α/δ ratio entry is “A’”, the β/δ ratio result is listed as “D’” and the γ/δ ratio result is on record as “A’”. For the same compound, at PI3K gamma, the IC50 was > 500 nM. Moreover, at PI3K alpha, the IC50 is > 500 nM. Also, on PI3K beta, the half-maximal inhibitory concentration (IC50) was ≤ 100 nM and the α/β ratio result is “A’”.

Consider `Cn1nccc1-c1ccccc1CC(C)(C)Nc1nc(N2CCOCC2)nc(-n2c(C(F)F)nc3ccccc32)n1` [Compound A46, 4-(2-(difluoromethyl)-1H-benzo[d]imidazol-1-yl)-N-(2-methyl-1-(2-(1-methyl-1H-pyrazol-5-yl)phenyl)propan-2-yl)-6-morpholino-1,3,5-triazin-2-amine], for which, at PI3K delta, the IC50 is ≤ 100 nM, the α/δ ratio result is recorded as “A’”, the β/δ ratio entry is recorded as “D’” and the γ/δ ratio entry is “A’”. Moreover, at PI3K gamma, the IC50 was > 500 nM. In addition, the IC50 on PI3K alpha is 200 to 500 nM. Further, on PI3K beta, the IC50 is ≤ 100 nM and the α/β ratio result is reported as “A’”.

On to `CC(C)(Cc1ccccc1-c1cncnc1)Nc1nc(N2CCOCC2)nc(-n2c(C(F)F)nc3ccccc32)n1` [Compound A63, 4-(2-(difluoromethyl)-1H-benzo[d]imidazol-1-yl)-N-(2-methyl-1-(2-(pyrimidin-5-yl)phenyl)propan-2-yl)-6-morpholino-1,3,5-triazin-2-amine], for which, on PI3K delta, the IC50 was ≤ 100 nM, the α/δ ratio entry is given as “A’”, the β/δ ratio entry is listed as “A’” and the γ/δ ratio result is on record as “A’”. Also, the IC50 on PI3K gamma was 200 to 500 nM. Further, the concentration for half-maximal inhibition (IC50) on PI3K alpha was in the range of 200 to 500 nM. Further, on PI3K beta, the 50% inhibitory concentration (IC50) was ≤ 100 nM and the α/β ratio entry is given as “D’”.

`CN(C)CCCc1ccccc1CC(C)(C)Nc1nc(N2CCOCC2)nc(-n2c(C(F)F)nc3ccccc32)n1` [Compound A76, 4-(2-(difluoromethyl)-1H-benzo[d]imidazol-1-yl)-N-(1-(2-(3-(dimethylamino)propyl)phenyl)-2-methylpropan-2-yl)-6-morpholino-1,3,5-triazin-2-amine]: at PI3K delta, the IC50 was ≤ 100 nM, the α/δ ratio result is recorded as “A’”, the β/δ ratio result was “A’” and the γ/δ ratio result is reported as “A’”. At PI3K gamma, the IC50 is > 500 nM. For the same compound, the 50% inhibitory concentration (IC50) on PI3K alpha was > 500 nM. On PI3K beta, the IC50 lay within 200 to 500 nM and the α/β ratio result is “C’”.

In the case of `CC(C)(Cc1ccccc1-c1cccc(CN2CCOCC2)c1)Nc1nc(N2CCOCC2)nc(-n2c(C(F)F)nc3ccccc32)n1` [Compound A65, 4-(2-(difluoromethyl)-1H-benzo[d]imidazol-1-yl)-N-(2-methyl-1-(3′-(morpholinomethyl)biphenyl-2-yl)propan-2-yl)-6-morpholino-1,3,5-triazin-2-amine], at PI3K delta, the half-maximal inhibitory concentration (IC50) was ≤ 100 nM, the α/δ ratio entry is “A’”, the β/δ ratio entry is on record as “D’” and the γ/δ ratio entry is “D’”. Besides, on PI3K gamma, the concentration for half-maximal inhibition (IC50) lay within 100 to 200 nM. Besides, the IC50 at PI3K alpha was > 500 nM. Further, at PI3K beta, the IC50 is ≤ 100 nM and the α/β ratio result is recorded as “A’”.

Take `CC(C)(Cc1ccccc1-c1cn[nH]c1)Nc1nc(N2CCOCC2)nc(-n2c(C(F)F)nc3ccccc32)n1` [Compound A44, 4-(2-(difluoromethyl)-1H-benzo[d]imidazol-1-yl)-N-(1-(2-(1H-pyrazol-4-yl)phenyl)-2-methylpropan-2-yl)-6-morpholino-1,3,5-triazin-2-amine]: at PI3K delta, the IC50 is ≤ 100 nM, the α/δ ratio entry is given as “A’”, the β/δ ratio entry is listed as “D’” and the γ/δ ratio result was “A’”. The IC50 on PI3K gamma lay within 100 to 200 nM. In addition, the IC50 on PI3K alpha is 200 to 500 nM. On PI3K beta, the IC50 was ≤ 100 nM and the α/β ratio result was “A’”.

For the compound `CC(=O)N1CCC(c2ccccc2CC(C)(C)Nc2nc(N3CCOCC3)nc(-n3c(C(F)F)nc4ccccc43)n2)CC1` [Compound A72, 4-(2-(difluoromethyl)-1H-benzo[d]imidazol-1-yl)-N-(2-methyl-1-(2-(1-acetylpiperidin-4-yl)phenyl)propan-2-yl)-6-morpholino-1,3,5-triazin-2-amine], on PI3K delta, the IC50 is ≤ 100 nM, the α/δ ratio result was “A’”, the β/δ ratio result is on record as “D’” and the γ/δ ratio result was “C’”. For the same compound, the 50% inhibitory concentration (IC50) at PI3K gamma was ≤ 100 nM. Besides, on PI3K alpha, the IC50 fell in the range of 100 to 200 nM. At PI3K beta, the concentration for half-maximal inhibition (IC50) is ≤ 100 nM and the α/β ratio result was “A’”.

For the compound `COc1cc(CC(C)(C)Nc2nc(N3CCOCC3)nc(-n3c(C(F)F)nc4ccccc43)n2)ccc1F` [Compound A50, 4-(2-(difluoromethyl)-1H-benzo[d]imidazol-1-yl)-N-(1-(4-fluoro-3-methoxyphenyl)-2-methylpropan-2-yl)-6-morpholino-1,3,5-triazin-2-amine], at PI3K delta, the half-inhibitory concentration (IC50) is ≤ 100 nM, the α/δ ratio entry was “A’”, the β/δ ratio entry is “C’” and the γ/δ ratio entry was “A’”. Further, on PI3K gamma, the half-maximal inhibitory concentration (IC50) was > 500 nM. On PI3K alpha, the IC50 is > 500 nM. Besides, on PI3K beta, the IC50 was ≤ 100 nM and the α/β ratio entry is “B’”.

As for `CCN1CCC(c2ccccc2CC(C)(C)Nc2nc(N3CCOCC3)nc(-n3c(C(F)F)nc4ccccc43)n2)CC1` [Compound A70, 4-(2-(difluoromethyl)-1H-benzo[d]imidazol-1-yl)-N-(1-(2-(1-ethylpiperidin-4-yl)phenyl)-2-methylpropan-2-yl)-6-morpholino-1,3,5-triazin-2-amine], at PI3K delta, the IC50 is ≤ 100 nM, the α/δ ratio result was “A’”, the β/δ ratio result is given as “A’” and the γ/δ ratio entry is “A’”. The IC50 at PI3K gamma was > 500 nM. In addition, the IC50 at PI3K alpha is > 500 nM. Moreover, on PI3K beta, the 50% inhibitory concentration (IC50) is > 500 nM and the α/β ratio entry was “C’”.

In the case of `CC(C)(Cc1ccccc1C1CCNCC1)Nc1nc(N2CCOCC2)nc(-n2c(C(F)F)nc3ccccc32)n1` [Compound A68, 4-(2-(difluoromethyl)-1H-benzo[d]imidazol-1-yl)-N-(2-methyl-1-(2-(piperidin-4-yl)phenyl)propan-2-yl)-6-morpholino-1,3,5-triazin-2-amine], at PI3K delta, the IC50 was ≤ 100 nM, the α/δ ratio entry was “A’”, the β/δ ratio result is given as “A’” and the γ/δ ratio result is “A’”. Further, the concentration for half-maximal inhibition (IC50) on PI3K gamma was > 500 nM. The half-maximal inhibitory concentration (IC50) on PI3K alpha is > 500 nM. In addition, on PI3K beta, the 50% inhibitory concentration (IC50) is > 500 nM and the α/β ratio entry is recorded as “D’”.

As for `CC(C)N1CCC(c2ccccc2CC(C)(C)Nc2nc(N3CCOCC3)nc(-n3c(C(F)F)nc4ccccc43)n2)CC1` [Compound A71, 4-(2-(difluoromethyl)-1H-benzo[d]imidazol-1-yl)-N-(1-(2-(1-isopropylpiperidin-4-yl)phenyl)-2-methylpropan-2-yl)-6-morpholino-1,3,5-triazin-2-amine], at PI3K delta, the IC50 is ≤ 100 nM, the α/δ ratio entry is reported as “A’”, the β/δ ratio entry is on record as “A’” and the γ/δ ratio entry was “A’”. Moreover, the half-maximal inhibitory concentration (IC50) at PI3K gamma was > 500 nM. Moreover, the half-maximal inhibitory concentration (IC50) on PI3K alpha is > 500 nM. In addition, on PI3K beta, the IC50 was > 500 nM and the α/β ratio result was “D’”.

As to `CC(C)(Cc1ccccc1-c1ccccc1Cl)Nc1nc(N2CCOCC2)nc(-n2c(C(F)F)nc3ccccc32)n1` [Compound A61, 4-(2-(difluoromethyl)-1H-benzo[d]imidazol-1-yl)-N-(1-(6′-chlorobiphenyl-2-yl)-2-methylpropan-2-yl)-6-morpholino-1,3,5-triazin-2-amine], on PI3K delta, the IC50 is ≤ 100 nM, the α/δ ratio entry is “A’”, the β/δ ratio result is “D’” and the γ/δ ratio result was “A’”. In addition, the IC50 at PI3K gamma was > 500 nM. Moreover, the IC50 at PI3K alpha was > 500 nM. Further, at PI3K beta, the IC50 was ≤ 100 nM and the α/β ratio entry is listed as “A’”.

The IC50 is the concentration that inhibits the measured activity by half.
